Here are results for 2 molecules from patent publication US7947666B2, “2-methylene-(20S,25S)-19,26-dinor-vitamin D analogs” (Wisconsin Alumni Research Foundation, priority 2007, dated 2011).

pEC50: −log10 of the molar value. Read-outs that look alike come from different tables or passages of the source.

In one experiment the test system is HL-60 cells. The experiment can be described thus: HL-60 differentiation (nitro blue tetrazolium reduction). It counts as cell-based, human. Particulars: 4 days, NBT reduction, FIG. 2, read-out: EC50, HL-60 cell differentiation. Here is the method: The study drugs were dissolved in ethanol and the concentrations determined using UV spectrophotometry. Serial dilutions were prepared so that a range of drug concentrations could be tested without changing the final concentration of ethanol (≦0.2%) present in the cell cultures.
Human promyelocytic leukemia (HL60) cells were grown in RPMI-1640 medium containing 10% fetal bovine serum. The cells were incubated at 37° C. in the presence of 5% CO2.
HL60 cells were plated at 1.2×10^5 cells/ml. Eighteen hours after plating, cells in duplicate were treated with drug. Four days later, the cells were harvested and a nitro blue tetrazolium reduction assay was performed (Collins et al., 1979; J. Exp. Med. 149:969-974). The percentage of differentiated cells was determined by counting a total of 200 cells and recording the number that contained intracellular black-blue formazan deposits. Verification of differentiation to monocytic cells was determined by measuring phagocytic activity (data not shown).

For experiment [1], the system named is vitamin D-deficient rats. The experiment can be described thus: Bone calcium mobilization (serum calcium). It counts as in vivo, rat. To be noted: for bone calcium mobilization (serum calcium levels): all dosages / overall, FIGS. 4A and 4B; for bone calcium mobilization (serum calcium): rats on low calcium diet (0.02%). As to the method:
(§1) Male, weanling Sprague-Dawley rats were placed on Diet 11 (0.47% Ca) diet +AEK oil for one week followed by Diet 11 (0.02% Ca) +AEK oil for 3 weeks. The rats were then switched to a diet containing 0.47% Ca for one week followed by two weeks on a diet containing 0.02% Ca. Dose administration began during the last week on 0.02% calcium diet. Four consecutive ip doses were given approximately 24 hours apart. Twenty-four hours after the last dose, blood was collected from the severed neck and the concentration of serum calcium determined as a measure of bone calcium mobilization. The first 10 cm of the intestine was also collected for intestinal calcium transport analysis using the everted gut sac method.
Calcium mobilization from bone and intestinal calcium absorption in vitamin D-deficient animals.

Experiment [2] concerns vitamin D-deficient rats. The experiment can be described thus: Intestinal calcium transport, everted gut sac method. Particulars: for intestinal calcium transport: everted gut sac. The format is in vivo, rat. As to the method: as §1
Intestinal calcium transport was evaluated in the same groups of animals using the everted gut sac method (FIGS. 5A and 5B).

Experiment [3] deals with 24-hydroxylase (24Ohase) gene promoter. The experiment can be described thus: In vitro transcription assay, luciferase reporter in ROS 17/2.8 (bone) cells. The format is cell-based. Particulars: ROS 17/2.8 cells, 24-hydroxylase promoter luciferase, 16 h; FIG. 3; read-out: EC50, transcriptional activity in bone cells. As to the method:
Transcription activity was measured in ROS 17/2.8 (bone) cells that were stably transfected with a 24-hydroxylase (24Ohase) gene promoter upstream of a luciferase reporter gene (Arbour et al., 1998). Cells were given a range of doses. Sixteen hours after dosing the cells were harvested and luciferase activities were measured using a luminometer.
RLU=relative luciferase units.

Setting [4] is: 260 pmol/day ip for 4 consecutive days.
Where [5] appears, read: 7020 pmol/day ip for 4 consecutive days.

One may read the pEC50 as the negative decadic logarithm of the EC50, by convention in mol/L. In the case of `C=C1/C(=C\C=C2/CCC[C@]3(C)[C@@H]([C@H](C)CCCC(C)(C)O)CC[C@@H]23)C[C@@H](O)C[C@@H]1O` [1,25(OH)2D3, 1α,25-dihydroxyvitamin D3, reference compound], in the experiment on HL-60 cells, the pEC50 was 8.70. The “bone calcium mobilization (serum calcium levels)” value in the experiment with vitamin D-deficient rats [1] is “increased serum calcium levels at all dosages”. Besides, the intestinal calcium transport result in the experiment with vitamin D-deficient rats [2] (setting [4]) was “promotes a significant increase”.
As for `C=C1[C@H](O)CC(=C/C=C2\CCC[C@@]3(C)C2CC[C@@H]3[C@@H](C)CCC[C@H](C)O)C[C@H]1O` (stereo partly drawn) [A4, 2-methylene-(20S,25S)-19,26-dinor-1α,25-dihydroxyvitamin D3], the pEC50 was 9.30 in the experiment on HL-60 cells (Homo sapiens, 96 h) and 10.52 in experiment [3]. Moreover, the “bone calcium mobilization (serum calcium)” value with vitamin D-deficient rats [1] (setting [4]) is “did not result in mobilization of bone calcium”; with vitamin D-deficient rats [1] (setting [5]), “without any substantial effect”. In the experiment on vitamin D-deficient rats [1], the “bone calcium mobilization (serum calcium levels)” value is listed as “very little bone calcium mobilization activity”. The “times less potent than the native hormone in mobilizing bone calcium store” value in the experiment on vitamin D-deficient rats [1] (rats, compared to 1,25(OH)2D3, same increase in serum calcium) is recorded as “approximately 100 times”. Besides, the intestinal calcium transport result in the experiment on vitamin D-deficient rats [2] (setting [4]) is reported as “promotes intestinal calcium transport only slightly”; with vitamin D-deficient rats [2] (setting [5]), “significant intestinal calcium transport activity”. Besides, the “intestinal calcium transport activity compared to 1,25(OH)2D3” value in the experiment with vitamin D-deficient rats [2] (overall, FIGS. 5A and 5B, two batches of rats) was “very little activity”.
